In PMC8550792, “Evolution of kinase polypharmacology across HSP90 drug discovery” (Cell Chemical Biology, 2021):

How the values were obtained:
Assay in all cases: biochemical
Type in all cases: biochemical
382 unique human kinases [1] = target: T1, 382 unique human kinases (Homo sapiens, UniProt O94804); conditions: LOK/STK10, 10 uM; for remaining activity at 10 µM: read-out: % Enzyme Activity (relative to DMSO controls)
T1 construct: purchased Reaction Biology (HotSpot contract assay)

382 unique human kinases [2] = target: T2, 382 unique human kinases (Homo sapiens, UniProt P07949, V804M); conditions: RET (V804M), 10 uM; for remaining activity at 10 µM: read-out: % Enzyme Activity (relative to DMSO controls)
T2 construct: purchased Reaction Biology (HotSpot contract assay)
T2 sequence (P07949 29-1114 V804M): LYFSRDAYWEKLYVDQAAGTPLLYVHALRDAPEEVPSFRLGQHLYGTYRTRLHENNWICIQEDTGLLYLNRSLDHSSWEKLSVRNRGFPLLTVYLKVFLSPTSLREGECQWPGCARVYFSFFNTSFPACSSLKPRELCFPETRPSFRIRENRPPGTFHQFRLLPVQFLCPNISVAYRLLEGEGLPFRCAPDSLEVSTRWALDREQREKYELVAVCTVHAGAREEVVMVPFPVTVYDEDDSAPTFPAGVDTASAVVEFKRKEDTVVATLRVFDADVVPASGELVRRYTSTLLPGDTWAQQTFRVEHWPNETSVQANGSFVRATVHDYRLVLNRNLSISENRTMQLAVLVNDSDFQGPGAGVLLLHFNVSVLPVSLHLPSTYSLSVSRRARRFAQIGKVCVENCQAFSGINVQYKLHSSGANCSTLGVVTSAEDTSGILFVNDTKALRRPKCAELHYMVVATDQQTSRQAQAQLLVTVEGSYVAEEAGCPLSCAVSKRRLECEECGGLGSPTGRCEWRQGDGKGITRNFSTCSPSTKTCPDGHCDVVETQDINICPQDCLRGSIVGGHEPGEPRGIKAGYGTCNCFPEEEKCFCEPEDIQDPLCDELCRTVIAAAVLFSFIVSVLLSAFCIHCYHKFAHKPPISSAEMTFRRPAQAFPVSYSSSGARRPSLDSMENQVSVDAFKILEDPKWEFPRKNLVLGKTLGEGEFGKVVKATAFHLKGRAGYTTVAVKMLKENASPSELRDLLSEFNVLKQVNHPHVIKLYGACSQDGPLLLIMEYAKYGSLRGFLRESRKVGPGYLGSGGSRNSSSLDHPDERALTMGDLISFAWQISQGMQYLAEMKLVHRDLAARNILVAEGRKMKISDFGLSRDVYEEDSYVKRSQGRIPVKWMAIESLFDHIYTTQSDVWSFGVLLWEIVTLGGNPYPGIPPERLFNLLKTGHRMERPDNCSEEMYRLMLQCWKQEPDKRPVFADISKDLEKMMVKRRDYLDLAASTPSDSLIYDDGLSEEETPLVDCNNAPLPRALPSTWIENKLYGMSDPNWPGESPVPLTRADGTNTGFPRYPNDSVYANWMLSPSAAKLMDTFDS

382 unique human kinases [3] = target: T3, 382 unique human kinases (Homo sapiens, UniProt Q9P2K8); conditions: kinase EIF2AK4, compound 10 uM; for remaining activity at 10 µM: read-out: % Enzyme Activity (relative to DMSO controls)
T3 construct: purchased Reaction Biology (HotSpot contract assay)

382 unique human kinases [4] = target: T4, 382 unique human kinases (Homo sapiens, UniProt P22607, K650Q); conditions: kinase FGFR3 (K650Q), compound 10 uM; for remaining activity at 10 µM: read-out: % Enzyme Activity (relative to DMSO controls)
T4 construct: purchased Reaction Biology (HotSpot contract assay)

382 unique human kinases [5] = target: T5, 382 unique human kinases (Homo sapiens, UniProt P16234); conditions: kinase PDGFRa, compound 10 uM; for remaining activity at 10 µM: read-out: % Enzyme Activity (relative to DMSO controls)
T5 construct: purchased Reaction Biology (HotSpot contract assay)
T5 sequence (P16234 24-1089): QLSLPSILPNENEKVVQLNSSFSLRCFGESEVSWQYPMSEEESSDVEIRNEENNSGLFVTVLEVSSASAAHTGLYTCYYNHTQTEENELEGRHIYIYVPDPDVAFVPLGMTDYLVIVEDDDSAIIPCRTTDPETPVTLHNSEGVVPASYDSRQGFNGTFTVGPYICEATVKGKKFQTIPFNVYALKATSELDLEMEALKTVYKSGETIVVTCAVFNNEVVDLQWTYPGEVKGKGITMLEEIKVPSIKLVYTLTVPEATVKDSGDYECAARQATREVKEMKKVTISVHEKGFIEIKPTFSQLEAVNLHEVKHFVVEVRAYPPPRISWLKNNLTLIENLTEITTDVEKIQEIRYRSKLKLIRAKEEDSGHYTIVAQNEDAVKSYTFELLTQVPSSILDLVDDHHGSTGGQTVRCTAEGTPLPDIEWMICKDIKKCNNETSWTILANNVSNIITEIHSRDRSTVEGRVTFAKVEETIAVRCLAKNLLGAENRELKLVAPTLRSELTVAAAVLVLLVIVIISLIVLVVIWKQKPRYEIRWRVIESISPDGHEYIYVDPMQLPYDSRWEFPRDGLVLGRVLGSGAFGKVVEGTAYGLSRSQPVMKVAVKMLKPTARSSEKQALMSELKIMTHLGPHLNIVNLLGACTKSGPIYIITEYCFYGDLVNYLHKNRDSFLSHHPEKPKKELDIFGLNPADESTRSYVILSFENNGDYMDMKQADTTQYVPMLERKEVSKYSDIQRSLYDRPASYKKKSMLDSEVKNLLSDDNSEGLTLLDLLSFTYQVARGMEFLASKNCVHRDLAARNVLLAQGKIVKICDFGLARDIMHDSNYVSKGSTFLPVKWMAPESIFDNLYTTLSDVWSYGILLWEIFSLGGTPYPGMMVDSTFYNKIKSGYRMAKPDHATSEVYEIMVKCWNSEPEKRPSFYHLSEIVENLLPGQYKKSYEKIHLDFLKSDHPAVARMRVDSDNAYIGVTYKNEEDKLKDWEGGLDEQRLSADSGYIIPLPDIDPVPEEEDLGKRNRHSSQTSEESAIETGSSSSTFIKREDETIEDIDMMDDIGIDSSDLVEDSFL

382 unique human kinases [6] = target: T6, 382 unique human kinases (Homo sapiens, UniProt P48730); conditions: CK1d, 10 uM; for remaining activity at 10 µM: read-out: % Enzyme Activity (relative to DMSO controls)
T6 construct: purchased Reaction Biology (HotSpot contract assay)
T6 sequence (P48730 whole entry): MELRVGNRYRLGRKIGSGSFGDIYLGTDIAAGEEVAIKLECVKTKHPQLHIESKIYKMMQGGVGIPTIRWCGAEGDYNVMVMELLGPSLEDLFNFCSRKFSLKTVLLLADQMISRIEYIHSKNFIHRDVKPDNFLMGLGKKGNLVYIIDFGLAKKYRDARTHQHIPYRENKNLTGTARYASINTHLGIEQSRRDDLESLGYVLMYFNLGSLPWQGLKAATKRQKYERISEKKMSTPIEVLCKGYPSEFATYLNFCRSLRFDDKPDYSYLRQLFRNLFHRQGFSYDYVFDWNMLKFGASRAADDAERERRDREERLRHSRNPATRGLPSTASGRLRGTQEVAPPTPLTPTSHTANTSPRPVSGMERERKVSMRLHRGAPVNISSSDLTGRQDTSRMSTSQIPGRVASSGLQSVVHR

382 unique human kinases [7] = target: T7, 382 unique human kinases (Homo sapiens, UniProt P36896); conditions: ALK4/ACVR1B, 10 uM; for remaining activity at 10 µM: read-out: % Enzyme Activity (relative to DMSO controls)
T7 construct: purchased Reaction Biology (HotSpot contract assay)
T7 sequence (P36896 24-505): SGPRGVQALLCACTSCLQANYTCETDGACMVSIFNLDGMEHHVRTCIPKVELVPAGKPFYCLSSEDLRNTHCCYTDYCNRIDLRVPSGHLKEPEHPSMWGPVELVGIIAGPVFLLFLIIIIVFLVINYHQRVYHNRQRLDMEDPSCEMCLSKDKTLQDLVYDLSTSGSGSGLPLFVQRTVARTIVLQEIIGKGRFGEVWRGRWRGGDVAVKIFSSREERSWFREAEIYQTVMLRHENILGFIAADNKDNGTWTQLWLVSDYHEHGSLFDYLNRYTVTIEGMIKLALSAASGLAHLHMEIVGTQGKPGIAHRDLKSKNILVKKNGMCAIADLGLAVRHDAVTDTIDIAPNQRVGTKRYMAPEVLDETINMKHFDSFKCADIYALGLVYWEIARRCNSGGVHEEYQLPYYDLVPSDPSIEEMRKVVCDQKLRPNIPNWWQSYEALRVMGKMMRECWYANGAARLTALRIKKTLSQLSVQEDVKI

382 unique human kinases [8] = target: T8, 382 unique human kinases (Homo sapiens, UniProt Q9H4B4); conditions: PLK3, [ATP] 100 µM, compound 10 uM; for remaining activity at 10 µM: read-out: % Enzyme Activity (relative to DMSO controls)
T8 construct: purchased Reaction Biology (HotSpot contract assay)
T8 sequence (Q9H4B4 whole entry): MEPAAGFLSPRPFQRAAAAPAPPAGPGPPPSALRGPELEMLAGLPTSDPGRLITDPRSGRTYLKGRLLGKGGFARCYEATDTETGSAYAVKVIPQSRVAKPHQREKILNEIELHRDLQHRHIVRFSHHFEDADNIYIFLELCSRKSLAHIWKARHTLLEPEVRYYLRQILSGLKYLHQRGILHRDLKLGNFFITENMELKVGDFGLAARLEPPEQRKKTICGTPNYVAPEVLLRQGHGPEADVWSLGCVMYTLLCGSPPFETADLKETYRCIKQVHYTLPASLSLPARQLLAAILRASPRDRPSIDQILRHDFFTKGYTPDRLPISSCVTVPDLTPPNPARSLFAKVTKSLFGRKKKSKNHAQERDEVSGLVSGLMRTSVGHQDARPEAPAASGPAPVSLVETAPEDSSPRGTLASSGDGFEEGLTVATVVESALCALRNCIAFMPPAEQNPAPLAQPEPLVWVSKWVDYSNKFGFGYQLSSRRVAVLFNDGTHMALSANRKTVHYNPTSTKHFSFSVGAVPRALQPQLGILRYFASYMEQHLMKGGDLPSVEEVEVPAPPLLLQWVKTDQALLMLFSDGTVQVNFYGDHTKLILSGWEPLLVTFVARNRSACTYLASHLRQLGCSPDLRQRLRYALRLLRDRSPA

382 unique human kinases [9] = target: T9, 382 unique human kinases (Homo sapiens, UniProt Q14680); conditions: MELK, [ATP] 50 µM, compound 10 uM; for remaining activity at 10 µM: read-out: % Enzyme Activity (relative to DMSO controls)
T9 construct: purchased Reaction Biology (HotSpot contract assay)
T9 sequence (Q14680 whole entry): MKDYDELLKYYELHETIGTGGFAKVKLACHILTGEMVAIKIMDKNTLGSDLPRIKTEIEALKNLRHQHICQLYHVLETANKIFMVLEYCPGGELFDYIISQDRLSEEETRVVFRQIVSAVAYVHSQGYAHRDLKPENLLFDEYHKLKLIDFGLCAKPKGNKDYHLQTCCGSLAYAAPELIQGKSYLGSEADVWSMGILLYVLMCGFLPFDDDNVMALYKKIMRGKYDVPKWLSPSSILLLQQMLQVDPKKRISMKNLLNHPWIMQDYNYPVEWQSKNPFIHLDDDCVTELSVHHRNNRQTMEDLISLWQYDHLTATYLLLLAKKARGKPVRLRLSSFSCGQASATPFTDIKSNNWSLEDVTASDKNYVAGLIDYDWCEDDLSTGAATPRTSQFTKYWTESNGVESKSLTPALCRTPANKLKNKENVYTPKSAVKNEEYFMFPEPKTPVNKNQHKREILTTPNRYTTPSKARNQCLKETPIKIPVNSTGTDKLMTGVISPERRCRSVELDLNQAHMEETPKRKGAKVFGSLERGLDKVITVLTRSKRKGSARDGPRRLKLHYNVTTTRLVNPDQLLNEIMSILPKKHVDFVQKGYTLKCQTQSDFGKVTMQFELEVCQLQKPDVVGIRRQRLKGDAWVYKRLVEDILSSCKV

382 unique human kinases [10] = target: T10, 382 unique human kinases (Homo sapiens, UniProt Q8IVT5); conditions: KSR1, 10 uM; for remaining activity at 10 µM: read-out: % Enzyme Activity (relative to DMSO controls)
T10 construct: purchased Reaction Biology (HotSpot contract assay)
T10 sequence (Q8IVT5 1-923): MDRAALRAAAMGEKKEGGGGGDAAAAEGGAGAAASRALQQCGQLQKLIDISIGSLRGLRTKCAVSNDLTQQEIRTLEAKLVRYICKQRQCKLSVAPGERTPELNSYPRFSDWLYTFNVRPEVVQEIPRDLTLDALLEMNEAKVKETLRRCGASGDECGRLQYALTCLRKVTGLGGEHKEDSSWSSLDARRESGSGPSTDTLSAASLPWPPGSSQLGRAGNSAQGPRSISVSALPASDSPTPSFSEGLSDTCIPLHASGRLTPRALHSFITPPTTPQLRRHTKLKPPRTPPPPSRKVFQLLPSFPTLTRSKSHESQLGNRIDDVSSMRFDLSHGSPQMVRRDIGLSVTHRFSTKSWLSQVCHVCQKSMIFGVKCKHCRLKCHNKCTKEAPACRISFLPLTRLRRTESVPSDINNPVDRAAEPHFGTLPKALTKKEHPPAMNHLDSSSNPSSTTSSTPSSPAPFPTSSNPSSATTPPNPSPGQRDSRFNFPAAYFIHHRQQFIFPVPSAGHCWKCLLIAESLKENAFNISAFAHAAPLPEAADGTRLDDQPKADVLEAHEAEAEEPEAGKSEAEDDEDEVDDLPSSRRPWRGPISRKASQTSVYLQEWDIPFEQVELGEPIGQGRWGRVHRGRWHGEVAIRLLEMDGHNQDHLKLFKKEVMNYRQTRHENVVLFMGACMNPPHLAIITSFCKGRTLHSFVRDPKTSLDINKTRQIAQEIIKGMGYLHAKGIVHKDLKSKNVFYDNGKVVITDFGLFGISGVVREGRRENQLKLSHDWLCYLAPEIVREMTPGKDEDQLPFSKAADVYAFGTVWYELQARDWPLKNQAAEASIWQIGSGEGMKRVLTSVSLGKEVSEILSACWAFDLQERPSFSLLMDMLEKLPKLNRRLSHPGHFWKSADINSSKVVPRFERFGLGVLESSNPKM

382 unique human kinases [11] = target: T11, 382 unique human kinases (Homo sapiens, UniProt P42681); conditions: TXK, [ATP] 30 µM, compound 10 uM; for remaining activity at 10 µM: read-out: % Enzyme Activity (relative to DMSO controls)
T11 construct: purchased Reaction Biology (HotSpot contract assay)
T11 sequence (P42681 1-527): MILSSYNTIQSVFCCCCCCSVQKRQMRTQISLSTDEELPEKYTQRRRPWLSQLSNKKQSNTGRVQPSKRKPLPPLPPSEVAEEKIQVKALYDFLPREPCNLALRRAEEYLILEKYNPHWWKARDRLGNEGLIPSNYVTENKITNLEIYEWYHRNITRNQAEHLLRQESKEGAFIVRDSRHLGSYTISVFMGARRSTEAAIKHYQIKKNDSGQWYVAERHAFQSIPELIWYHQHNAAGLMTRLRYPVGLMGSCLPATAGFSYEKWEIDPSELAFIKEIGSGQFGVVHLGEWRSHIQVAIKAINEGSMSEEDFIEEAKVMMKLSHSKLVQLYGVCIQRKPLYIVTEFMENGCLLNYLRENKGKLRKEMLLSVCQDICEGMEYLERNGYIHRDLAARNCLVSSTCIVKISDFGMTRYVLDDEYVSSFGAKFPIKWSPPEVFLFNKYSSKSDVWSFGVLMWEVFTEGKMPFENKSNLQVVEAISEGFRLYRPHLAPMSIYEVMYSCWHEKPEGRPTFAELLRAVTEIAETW

382 unique human kinases [12] = target: T12, 382 unique human kinases (Homo sapiens, UniProt P00519, M351T); conditions: ABL1 (M351T), [ATP] 10 µM, compound 10 uM; for remaining activity at 10 µM: read-out: % Enzyme Activity (relative to DMSO controls)
T12 construct: purchased Reaction Biology (HotSpot contract assay)

382 unique human kinases [13] = target: T13, 382 unique human kinases (Homo sapiens, UniProt Q16513); conditions: PKN2/PRK2, 10 uM; for remaining activity at 10 µM: read-out: % Enzyme Activity (relative to DMSO controls)
T13 construct: purchased Reaction Biology (HotSpot contract assay)
T13 sequence (Q16513 whole entry): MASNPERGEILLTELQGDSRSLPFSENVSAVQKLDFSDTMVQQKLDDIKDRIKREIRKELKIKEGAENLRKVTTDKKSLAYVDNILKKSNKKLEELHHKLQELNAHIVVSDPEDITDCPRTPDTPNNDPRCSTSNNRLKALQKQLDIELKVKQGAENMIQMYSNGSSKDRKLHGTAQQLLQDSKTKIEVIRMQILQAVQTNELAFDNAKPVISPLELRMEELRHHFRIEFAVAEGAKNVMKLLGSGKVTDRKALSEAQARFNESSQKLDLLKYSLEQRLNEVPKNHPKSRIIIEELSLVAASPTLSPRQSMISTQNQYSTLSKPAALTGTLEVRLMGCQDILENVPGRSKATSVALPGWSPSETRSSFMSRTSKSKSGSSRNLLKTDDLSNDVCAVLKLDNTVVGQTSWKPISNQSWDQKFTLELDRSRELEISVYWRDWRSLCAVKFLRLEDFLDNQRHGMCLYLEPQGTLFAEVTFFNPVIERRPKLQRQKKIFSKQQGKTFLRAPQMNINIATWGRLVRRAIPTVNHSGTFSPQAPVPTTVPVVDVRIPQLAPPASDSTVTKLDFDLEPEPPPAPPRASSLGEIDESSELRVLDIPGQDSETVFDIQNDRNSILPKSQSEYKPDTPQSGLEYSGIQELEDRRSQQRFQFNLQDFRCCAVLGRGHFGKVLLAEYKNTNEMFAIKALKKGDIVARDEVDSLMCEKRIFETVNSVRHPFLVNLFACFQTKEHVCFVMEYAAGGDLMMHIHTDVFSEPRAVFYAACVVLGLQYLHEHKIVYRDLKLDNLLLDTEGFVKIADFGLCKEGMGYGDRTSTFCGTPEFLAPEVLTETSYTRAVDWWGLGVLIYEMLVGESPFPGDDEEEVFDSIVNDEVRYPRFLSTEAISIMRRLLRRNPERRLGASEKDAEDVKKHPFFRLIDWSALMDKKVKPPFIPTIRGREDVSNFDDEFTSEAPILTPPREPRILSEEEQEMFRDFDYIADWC

SMILES | remaining activity at 10 µM (382 unique human kinases [1]) [%] | remaining activity at 10 µM (382 unique human kinases [2]) [%] | remaining activity at 10 µM (382 unique human kinases [3]) [%] | remaining activity at 10 µM (382 unique human kinases [4]) [%] | remaining activity at 10 µM (382 unique human kinases [5]) [%] | remaining activity at 10 µM (382 unique human kinases [6]) [%] | remaining activity at 10 µM (382 unique human kinases [7]) [%] | remaining activity at 10 µM (382 unique human kinases [8]) [%] | remaining activity at 10 µM (382 unique human kinases [9]) [%] | remaining activity at 10 µM (382 unique human kinases [10]) [%] | remaining activity at 10 µM (382 unique human kinases [11]) [%] | remaining activity at 10 µM (382 unique human kinases [12]) [%] | remaining activity at 10 µM (382 unique human kinases [13]) [%] | other results
CC(C)c1cc(-c2n[nH]c(=O)n2-c2ccc3c(ccn3C)c2)c(O)cc1O [Ganetespib (STA9090)] | 77 | 81 | 85.7 | 84.5 | 82.6 | 81.2 |  |  |  |  |  |  |  | 
CC(C)c1cc(-c2n[nH]c(=O)n2-c2ccc3c(ccn3C)c2)c(O)cc1O [Ganetespib] |  |  |  |  |  |  | 111 | 39.6 | 44.5 | 99.8 | 21.4 | 1.72 | 95.7 | 
CCNC(=O)c1noc(-c2cc(C(C)C)c(O)cc2O)c1-c1ccc(CN2CCOCC2)cc1 [Luminespib (AUY-922)] | 86.5 | 98.7 | 116 | 107 | 85.4 | 83.5 |  |  |  |  |  |  |  | % Enzyme Activity (relative to DMSO controls) (382 unique human kinases [1]): 85.80%; % Enzyme Activity (relative to DMSO controls) (382 unique human kinases [2]): 97.95%; % Enzyme Activity (relative to DMSO controls) (382 unique human kinases [3]): 112.88%; % Enzyme Activity (relative to DMSO controls) (382 unique human kinases [4]): 105.48%; % Enzyme Activity (relative to DMSO controls) (382 unique human kinases [5]): 83.27%; % Enzyme Activity (relative to DMSO controls) (382 unique human kinases [6]): 81.12%
CCNC(=O)c1noc(-c2cc(C(C)C)c(O)cc2O)c1-c1ccc(CN2CCOCC2)cc1 [Luminespib] |  |  |  |  |  |  | 95 | 99.4 | 56.9 | 98.8 | 88.1 | 5.53 | 99.3 | % Enzyme Activity (relative to DMSO controls) (382 unique human kinases [7]): 94.12%; % Enzyme Activity (relative to DMSO controls) (382 unique human kinases [8]): 99.40%; % Enzyme Activity (relative to DMSO controls) (382 unique human kinases [9]): 56.86%; % Enzyme Activity (relative to DMSO controls) (382 unique human kinases [10]): 97.63%; % Enzyme Activity (relative to DMSO controls) (382 unique human kinases [11]): 87.82%; % Enzyme Activity (relative to DMSO controls) (382 unique human kinases [12]): 5.21%; % Enzyme Activity (relative to DMSO controls) (382 unique human kinases [13]): 98.60%
